Experimental findings from PMC10451018 (Protein Science : A Publication of the Protein Society, 2023) are described below.

Test [1] concerns the target T1, Azorhizobium caulinodans malic enzyme, AcME (Azorhizobium caulinodans, UniProt A8IFW0).
T1 sequence (A8IFW0 1-759): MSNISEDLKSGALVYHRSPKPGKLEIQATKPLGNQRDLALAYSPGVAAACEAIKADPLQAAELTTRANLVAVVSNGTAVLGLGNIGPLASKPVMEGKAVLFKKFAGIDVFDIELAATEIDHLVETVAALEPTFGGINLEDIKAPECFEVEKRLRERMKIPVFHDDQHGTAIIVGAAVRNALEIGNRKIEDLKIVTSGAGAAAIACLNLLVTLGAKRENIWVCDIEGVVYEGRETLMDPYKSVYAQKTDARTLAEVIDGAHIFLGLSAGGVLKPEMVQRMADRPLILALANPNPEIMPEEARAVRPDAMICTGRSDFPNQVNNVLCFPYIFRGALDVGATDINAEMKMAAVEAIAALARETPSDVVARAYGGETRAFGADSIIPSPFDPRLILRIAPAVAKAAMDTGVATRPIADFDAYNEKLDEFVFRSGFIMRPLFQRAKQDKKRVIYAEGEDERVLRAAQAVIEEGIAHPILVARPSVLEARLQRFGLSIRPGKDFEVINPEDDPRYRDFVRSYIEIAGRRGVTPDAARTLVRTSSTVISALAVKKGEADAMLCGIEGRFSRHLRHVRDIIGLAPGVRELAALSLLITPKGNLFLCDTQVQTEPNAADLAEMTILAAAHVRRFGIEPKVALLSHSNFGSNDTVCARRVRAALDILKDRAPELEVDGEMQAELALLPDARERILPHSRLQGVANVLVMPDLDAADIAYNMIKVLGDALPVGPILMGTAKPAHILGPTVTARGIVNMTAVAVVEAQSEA
Kind of test: spectrophotometric NADH formation at […] nm. Type of test: biochemical. Conditions: L-malate as co-substrate.

For test [2], the target named is T2, Aeropyrum pernix malate dehydrogenase, ApMDH (Aeropyrum pernix, UniProt Q9YEA1).
T2 sequence (Q9YEA1 1-308): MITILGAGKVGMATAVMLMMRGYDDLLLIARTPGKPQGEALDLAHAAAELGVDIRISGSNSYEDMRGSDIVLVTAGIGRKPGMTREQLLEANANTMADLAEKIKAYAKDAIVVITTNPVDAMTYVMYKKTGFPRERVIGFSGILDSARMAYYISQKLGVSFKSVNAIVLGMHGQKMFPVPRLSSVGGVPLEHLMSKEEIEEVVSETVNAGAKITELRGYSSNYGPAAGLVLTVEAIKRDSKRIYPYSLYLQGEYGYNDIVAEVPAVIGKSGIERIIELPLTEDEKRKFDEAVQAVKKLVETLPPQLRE
Kind of test: spectrophotometric NADH formation at […] nm. Conditions: L-malate as co-substrate. Type of test: biochemical.

Regarding `NC(=O)c1ccc[n+]([C@@H]2O[C@H](COP(=O)(O)OP(=O)(O)OC[C@H]3O[C@@H](n4cnc5c(N)ncnc54)[C@H](O)[C@@H]3O)[C@@H](O)[C@H]2O)c1` [NAD^+], the “spectrophotometric NADH formation at 340 nm” value in test [1] and in test [2] was “oxidation of L‐malate was accompanied by reduction of NAD^+ to NADH” each time.
